The experiment has as its system Human Heme Oxygenase-1 (HMOX-1). Put plainly: ELISA assay to measure human heme oxygenase-1 (HMOX-1) in HepG2 lysate. In kind it is cell-based. The gist of the method:
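Treated HepG2 cells were lysed in PBS with 0.5% Triton X100, 1 mM EDTA and protease inhibitors, and lysates were diluted 1:20. HO-1 was measured by sandwich ELISA (biotinylated detection antibody, streptavidin-HRP, chemiluminescence) at room temperature against a standard curve from 20 ng/ml. EC50 and fold change were expressed relative to DMSO control.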

The mark [1] stands for this setting: human HMOX1 protein level in HepG2 lysate, * = average of 2 or more EC50 determinations, NA = Not Active, read-out: EC50.

Each structure is given as a SMILES string. pEC50: −log10 of the molar value. Like-named read-outs stand apart in the source and are kept apart here.

On to `Cn1c(Nc2nc3ccccc3o2)nc2cc(C(=O)NCCOCCO)ccc21` [Example 17, 2-(benzo[d]oxazol-2-ylamino)-N-(2-(2-hydroxyethoxy)ethyl)-1-methyl-1H-benzo[d]imidazole-5-carboxamide], for which the pEC50 is 5.85 (HepG2, human HMOX1, as listed in Table 5, read-out: HMOX1 EC50 h) and 5.85 under setting [1].

As to `COCCNC(=O)c1ccc2c(c1)nc(Nc1nc3ccc(OCCOC)cc3o1)n2C` [Example 56, 2-((6-(2-methoxyethoxy)benzo[d]oxazol-2-yl)amino)-N-(2-methoxyethyl)-1-methyl-1H-benzo[d]imidazole-5-carboxamide], under setting [1], the negative-log EC50 (pEC50) is 5.85.

Values taken from patent US10766888B1, “HMOX1 inducers” (Mitobridge Inc., priority 2019, dated 2020).
